In assay [1] the test system is Rat pulmonary epithelial cell cultures (L2). As to the kind of experiment: Paraquat-induced injury of L2 cells, LDH release. Format: cell-based. The following applies: 100 μM; Paraquat 2.5 mM, 48 hours. (LDH in the medium is a marker of cell lysis.)
The test system of assay [2] is Calf pulmonary endothelial cell (CPA-47) line. Nature of the assay: Glucose oxidase hydrogen peroxide injury of CPA-47, Cr^51 release. The following applies: glucose oxidase 100 Mu/ml, 4 hours; 1 hour pretreatment. Format: cell-based. As for the experimental part: (§1) Calf pulmonary endothelial cell (CPA-47) line was grown to near confluence in 12-well plates with F-12K medium containing 10% fetal calf serum. CPA-47 cells were loaded with Cr^51 as previously described by Simon et al J. Clin. Invest. 78:1375 (1986) in high glucose minimum essential medium (DMEM). Cells were pretreated with MnTBAP (100 μM) for 1 hour and then exposed to various concentrations of hydrogen peroxide generator, glucose oxidase, for 4 hours. Cell injury was then quantitated as the specific Cr^51 release from CPA-47 cells which has been adjusted for spontaneous Cr51 release.
as §1, with “(J.” for “J.”, “(1986))” for “(1986)”, “various concentrations of either: (A) MnTBAP; (B) MnTMPyP; (C) ZnTBAP; or (D) CuZnSOD” for “MnTBAP (100 μM)”, “the” for “various concentrations of”, “oxidase (100 Mu/ml),” for “oxidase,”, “Cr^51” for “Cr51”

Assay [3] concerns calf pulmonary artery endothelial cell cultures (CPA-47). As to the kind of experiment: Paraquat-induced injury of CPA-47 cells, LDH release. Format: cell-based. The following applies: varying concentrations; Paraquat 2 mM, 24 hours. The procedure: Calf pulmonary artery endothelial cell cultures (CPA-47) were grown to confluence in Ham's F-12K medium with 10% fetal bovine serum at pH 7.4 and 37° C. Cells were then trypsinized and seeded at equal densities in 24 well plates and grown to 90% confluence. Cells were washed and pre-incubated for 1 hour with varying concentrations of ZnTBAP in MEM or MEM only. Paraquat (2 mM) was added and allowed to incubate for 24 hours. Cell injury was quantitated by measuring the release of cellular lactate dehydrogenase (LDH) into the medium.

Assay [4] in a line: SOD activity (McCord and Fridovich). Type of assay: biochemical. As for the experimental part:
SOD activity can be monitored in the presence and absence of EDTA using the method of McCord and Fridovich (J. Biol. Chem. 244:6049 (1969)). The efficacy of a mimetic can be determined by measuring the effect of the mimetic on the growth of a SOD null E. coli strain versus a wild type strain. Specifically, wild type E. coli (AB1157) and SOD null E. coli. (JI132) can be grown in M9 medium containing 0.2% casamino acids and 0.2% glucose at pH 7.0 and 37° C.; growth can be monitored in terms of turbidity followed at 700 nm spectrophotometrically. Active mimetics can be tested for toxicity in mammalian cell culture by measuring lactate dehydrogenase (LDH) release. Specifically, rat L2 cells (a lung Type II like cell; (Kaighn and Douglas, J. Cell Biol. 59:106a (1973)) can be grown in Ham's F-12 medium with 10% fetal calf serum supplement at pH 7.4 and 37° C.; cells can be seeded at equal densities in 24 well culture dishes and grown to approximately 90% confluence; SOD mimetics can be added to the cells at log doses (eg micromolar doses in minimal essential medium (MEM)) and incubated for 24 hours. Toxicity can be assessed by morphology and by measuring the release of the cytosolic injury marker, LDH (eg on a thermokinetic plate reader), as described by Vassault (In: Methods of Enzymatic Analysis, Bergmeyer (ed) pp. 118-26 (1983); oxidation of NADH is measured at 340 nm). Efficacy of active mimetics can be assessed by determining their ability to protect mammalian cells against methylviologen (paraquat)-induced toxicity. Specifically, rat L2 cells grown as described above and seeded into 24 well dishes can be pre-incubated with various concentrations of the SOD mimetic and then incubated with a concentration of methylviologen previously shown to produce an LC75 in control L2 cells. Efficacy of the mimetic can be correlated with a decrease in the methylviologen-induced LDH release (St. Clair et al, FEBS Lett. 293:199 (1991)). The efficacy of SOD mimetics can be tested in vivo with mouse and/or rat models using both aerosol administration and parenteral injection. For example, male Balb/c mice can be randomized into 4 groups of 8 mice each to form a standard 2×2 contingency statistical model. Animals can be treated with either paraquat (40 mg/kg, ip) or saline and treated with SOD mimetic or vehicle control. Lung injury can be assessed 48 hours after paraquat treatment by analysis of bronchoalveolar lavage fluid (BALF) damage parameters (LDH, protein and % PMN) as previously described (Hampson et al, Tox. Appl. Pharm. 98:206 (1989); Day et al, J. Pharm. Methods 24:1 (1990)). […]
^2SOD activity determined as described by McCord and Fridovich, J. Biol. Chem. […] (1969).

Another assay has as its target T1, EC-SOD (Mus musculus, UniProt O09164).
T1 construct: The brains were removed and assayed for EC-SOD and CuZn SOD activity as described above; from tissue; host or cells: mouse brain; EC-SOD separated from the homogenate on concanavalin A sepharose
T1 sequence (O09164 25-251): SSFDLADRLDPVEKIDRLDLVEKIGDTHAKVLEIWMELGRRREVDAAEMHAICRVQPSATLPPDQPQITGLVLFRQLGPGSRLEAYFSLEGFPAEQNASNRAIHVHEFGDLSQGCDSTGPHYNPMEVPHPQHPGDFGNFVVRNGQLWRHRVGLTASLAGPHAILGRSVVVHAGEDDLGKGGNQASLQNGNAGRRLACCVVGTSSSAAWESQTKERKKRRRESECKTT
As to the kind of experiment: Brain EC-SOD activity after diethyldithiocarbamate. Format: in vivo. The following applies: transgenic and nontransgenic mice, sacrificed one hour later. The procedure:
(§2) Separation of SOD isoenzymes by concanavalin A sepharose chromatography: Tissues taken from 3 mice were weighed, then combined and homogenized in 10 volumes of ice-cold 50 mM potassium phosphate, pH 7.4, with 0.3 M. KBr, 3 mM diethylenetriaminepentaacetic acid, and 0.5 mM phenylmethylsulfonyl fluoride. Separation of EC-SOD from CuZn SOD and Mn SOD was accomplished by passing tissue homogenates over a concanavalin A sepharose column as described (Marklund et al, Clin. Chim. Acta 126:4 (1982)). SOD activity: EC-SOD activity and total SOD activity (CuZn SOD and Mn SOD) remaining after EC-SOD extraction were measured by inhibition of cytochrome C reduction at pH 10, as previously described (Crapo et al, Methods Enzymol. 53:382 (1978)). Total protein was determined by the BCA protein assay (Pierce, Rockford, Ill.). The SOD activities were then expressed as units/mg total protein. To determine the extent of EC-SOD and CuZn SOD inhibition by diethyldithiocarbamate, mice were given diethyldithiocarbamate and sacrificed one hour later. The brains were removed and assayed for EC-SOD and CuZn SOD activity as described above.

The next assay has as its target T2, CuZn SOD (Mus musculus, UniProt P08228).
T2 construct: from tissue; host or cells: mouse brain; homogenate fraction left after removal of EC-SOD on concanavalin A sepharose
As to the kind of experiment: Brain CuZn SOD activity after diethyldithiocarbamate. Format: in vivo. The following applies: transgenic and nontransgenic mice, sacrificed one hour later. As for the experimental part:
as §2

The nature of assay [5]: CNS oxygen toxicity, 6 ATA hyperbaric oxygen exposure. The following applies: 6 ATA oxygen 25 minutes, DDC 400 mg/kg i.p. or LNNA 20 mg/kg i.p. Type of assay: in vivo, mice. The procedure:
Oxygen exposures: 7-8 week old mice were exposed to hyperbaric oxygen five at a time in a small-animal chamber (Bethlehem, Pa.). After flushing the chamber with pure oxygen, compression to 50 meters (6 ATA) was performed within 5 minutes. The oxygen concentration in the chamber was monitored continuously with a Servomex oxygen analyzer (model 572, Sybron, Norwood, Mass.) and maintained at ≳99%. The carbon dioxide concentration was analyzed from intermittent samples of chamber gas with an IR detector (IR Industries, Santa Barbara, Calif.) and was not allowed to rise above 0.1%. The chamber temperature was maintained at 25-26° C., but the compression of oxygen in the chamber raised the temperature to 30-32° C. transiently, but an environmental control system restored the normal chamber temperature within 3 minutes. […] The mice were observed continuously for signs of oxygen toxicity from the beginning of the exposure until 4 hours after removal from the chamber. The time to the first generalized convulsion (seizure latency) and the time to death were recorded. These exposure conditions are designed to cause CNS oxygen toxicity without appreciable evidence of pulmonary oxygen toxicity.
Treatment with diethyldithiocarbamate: One hour prior to exposure to 6 ATA oxygen, mice were given either i.p. injections of either 0.008 cc/g saline or 400 mg/kg diethyldithiocarbamate dissolves in normal saline (0.008 cc/g). The mice were then exposed to 6 ATA oxygen for 25 minutes as described above.
Treatment with β-mercaptoethanol: One hour prior to exposure to 6 ATA oxygen, mice were given either i.p. injections of 0.008 cc/g saline or 180 mg/kg β-mercaptoethanol (0.008 cc/g). This dose of β-mercaptoethanol was selected because it contains an equal number of reducing thiols as the dose of diethyldithiocarbamate. The mice were then exposed to 6 ATA oxygen for 30 minutes as described above.
Treatment with N-ω-nitro-L-arginine, an inhibitor of nitric oxide synthase: Ten minutes prior to beginning compression, 0.008 cc/g saline or 20 mg/kg (0.008 cc/g) N-ω-nitro-L-arginine dissolved in sterile water was given i.p to the transgenic and nontransgenic mice. Mice were then exposed at 6 ATA oxygen for 25 or 75 minutes as described above.

T2 sequence (P08228 whole entry): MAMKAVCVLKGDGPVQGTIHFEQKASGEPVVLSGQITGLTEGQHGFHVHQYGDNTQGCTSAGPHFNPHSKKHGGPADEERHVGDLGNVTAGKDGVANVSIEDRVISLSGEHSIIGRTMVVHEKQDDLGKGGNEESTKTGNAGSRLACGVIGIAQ

With `C[n+]1ccc(-c2c3nc(c(-c4cc[n+](C)cc4)c4ccc([n-]4)c(-c4cc[n+](C)cc4)c4nc(c(-c5cc[n+](C)cc5)c5ccc2[n-]5)C=C4)C=C3)cc1.[Mn+3]` [MnTMPyP, Mn(III) tetrakis (1-methy-4-pyridyl)porphyrin], the “paraquat-induced LDH release” value in assay [1] is “decrease paraquat-induced LDH release”. Also, the “hydrogen peroxide-induced endothelial cell injury” value in assay [2] is reported as “reduction”.

Take `O=C(O)c1ccc(-c2c3nc(c(-c4ccc(C(=O)O)cc4)c4ccc([n-]4)c(-c4ccc(C(=O)O)cc4)c4nc(c(-c5ccc(C(=O)O)cc5)c5ccc2[n-]5)C=C4)C=C3)cc1.[Zn+2]` [ZnTBAP, reference compound]: the “paraquat-induced LDH release / injury” value in assay [3] is listed as “does not protect against paraquat-induced injury”. Moreover, in assay [4], the “SOD activity, fold less than MnTBAP” value turned out to be 10 fold. Further, the “hydrogen peroxide-induced endothelial cell injury” value in assay [2] is listed as “does not reduce”.

A word on the inhibition: it is the share of the control response that was lost under treatment. A high value points to a strong effect. As to `CCN(CC)C(=S)S` [diethyldithiocarbamate], the inhibition at 400 mg/kg was 80% at EC-SOD and 60% at CuZn SOD. Further, the Survival is recorded as 93% in assay [5] (nontransgenic mice) and 100% in assay [5] (transgenic mice).

For the origin of these results see patent US6583132B1, “Oxidant scavengers” (Duke University, priority 1993, dated 2003).
